Laboratory results as given in publication PMC8400257, “2-Phenoxy-3-Trichloromethylquinoxalines Are Antiplasmodial Derivatives with Activity against the Apicoplast of Plasmodium falciparum” (Pharmaceuticals, 2021).
“Also recorded” adds a separate entry of the source.

What was measured:
[1] = system: S. typhimurium strains (TA97a, TA98, TA100, TA102); assay: Ames test; assay type: cell-based, Salmonella typhimurium; details: 48 h; 5 mM and 25 mM, w/o and w/ S9 mix; four S. typhimurium strains
Protocol: Nevertheless, the evaluation of the mutagenicity of compound (3i) was carried out using the Ames test on four S. typhimurium strains at 5 mM and 25 mM (four doses per concentrations: 2, 3, 4, 5 µL/plate for assay without S9 mix and 4, 6, 8, 10 µL/plate for assay with S9 mix).
Compounds were assessed for mutagenicity by a modified version of the liquid incubation assay of the classical Ames test at five concentrations (25–125 nM). Salmonella tester strains (TA97a: Acridine ICR191, TA98: 2,4,7 trinitrofluorenone, TA100: Sodium Azide and TA102: Mitomycine C) as positive control w/o S9 mix and benzo[alpha]pyrene as positive control w/S9 mix) were grown overnight in a nutrient broth n_2 (Oxoid, Dardilly, France). After this period, products dissolved in DMSO (Sigma) were added to 0.1 mL of culture and incubated for 1 h at 37 °C with shaking. Each sample was assayed in duplicate. After incubation, 2 mL of molten top agar were mixed gently with the pre-incubated solution and poured onto Vogel–Bonner minimal agar plates. After 48 h at 37 °C, the number of spontaneous and drug-induced revertants per plate was determined for each dose with a laser bacterial colony counter (laser bacterial colony counter 500A, Interscience). A product was considered mutagenic when it induced a two-fold increase in the number of revertants, compared with the spontaneous frequency (negative control). […]

P. falciparum apicoplast = assay: Immunofluorescence assay of apicoplast biogenesis on treated blood-stage parasites; assay type: cell-based, Plasmodium falciparum; details: 48 h, 0.2 µM
Protocol: To determine the impact of (3i) on apicoplast biogenesis, parasites were treated for 48 h with 0.2 µM of (3i) or 0.2 µM of (2i) (a control of (3i) for which the active CCl3 was replaced by a methyl CH3 group) and compared to untreated parasites by immunofluorescence assay. […] In order to determine if the apicoplast is the main target of (3i), we performed a growth assay over three life cycles to assess a potential delayed death effect, one of the major signature for compounds affecting apicoplast. […] The second interpretation could be that, unlike chloramphenicol or doxycycline, which cause a delayed death phenotype on Plasmodium, (3i) could act like fosmidomycin or actinonin and cause a rapid death phenotype.
Plasmodium falciparum blood stage parasites were maintained at 2% hematocrit in 1640 RPMI-HEPES, supplemented with 5% AlbuMAX II (GIBCO) and 0.25% gentamycin. Parasites were grown sealed Perspex chambers gassed with beta mix gas (1% O2, 5% CO2 and 94% N2) at 37 °C and maintained on 48-h cycles. Cultures were tightly synchronized at ring stage using sorbitol treatment (5% v/v) as previously described.
Prior to the treatment, parasites were synchronized using 5% sorbitol. After 48 h treatment ([…] or DMSO) parasites were fixed using 4% paraformaldehyde (PFA) and 0.0075% glutaraldehyde for 30 min at room temperature. […]

O=[N+]([O-])c1ccc(Oc2nc3ccccc3nc2C(Cl)(Cl)Cl)cc1 [3i, 2-(4-Nitrophenoxy)-3-trichloromethylquinoxaline]
Ames test result (mutagenicity) [1]: not genotoxic; also recorded: not mutagenic in vitro; also recorded: negative | Effect on apicoplast biogenesis (immunofluorescence) (P. falciparum apicoplast): effect on the apicoplast biogenesis; also recorded: doted single non-elongated apicoplast at the mid-trophozoite life stage
